# Assay results published in ChEMBL document CHEMBL1143066, “Characterization and optimization of selective, nonpeptidic inhibitors of cathepsin S with an unprecedented binding mode” (J Med Chem, 2007).
# Experiments:
# Homo sapiens [1] = species on record: Homo sapiens; assay: Selectivity for cathepsin S over cathepsin L
# Homo sapiens [2] = species on record: Homo sapiens; assay: Selectivity for cathepsin S over cathepsin K
# Homo sapiens [3] = species on record: Homo sapiens; assay: Selectivity for cathepsin S over cathepsin B
smiles,measurement,setting,value
CC(C)Cc1ccc(-c2ccccc2OCC=O)c(F)c1F,Activity,Homo sapiens [1],> 1000
same,Activity,Homo sapiens [2],> 100
same,Activity,Homo sapiens [3],> 1000
